The experiment concerns the target T1, mGlyT-1b (Mus musculus, UniProt P28571).
T1 construct: host or cells: Flp-in-CHO cells (vendor and catalogue number are those of the host cell line)
T1 sequence (P28571 1-651 isoform P28571-2): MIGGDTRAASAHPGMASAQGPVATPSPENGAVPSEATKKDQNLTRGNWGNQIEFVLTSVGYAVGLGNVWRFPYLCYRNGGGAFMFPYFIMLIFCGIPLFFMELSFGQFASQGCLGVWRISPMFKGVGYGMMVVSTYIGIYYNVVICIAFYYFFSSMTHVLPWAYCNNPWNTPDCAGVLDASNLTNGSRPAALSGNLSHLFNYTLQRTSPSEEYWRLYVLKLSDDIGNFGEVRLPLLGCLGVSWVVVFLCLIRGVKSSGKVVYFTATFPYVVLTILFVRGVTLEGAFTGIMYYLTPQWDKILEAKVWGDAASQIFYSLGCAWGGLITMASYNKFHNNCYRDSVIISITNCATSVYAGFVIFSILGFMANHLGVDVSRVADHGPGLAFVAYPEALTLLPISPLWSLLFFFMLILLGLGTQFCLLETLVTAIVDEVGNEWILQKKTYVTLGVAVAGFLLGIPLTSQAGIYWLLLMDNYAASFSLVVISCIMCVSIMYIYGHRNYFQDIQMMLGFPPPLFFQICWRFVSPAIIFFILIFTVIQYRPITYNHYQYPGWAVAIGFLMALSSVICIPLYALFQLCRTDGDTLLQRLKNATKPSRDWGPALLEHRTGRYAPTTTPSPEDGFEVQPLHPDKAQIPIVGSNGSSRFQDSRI
In words: Glycine Uptake Inhibition Assay (mGlyT-1b). The following applies: inhibition of [3H]-glycine uptake in Flp-in-CHO cells transfected with mGlyT-1b cDNA; 20 min preincubation at 22° C.; read-out: IC50 (μM) at GlyT-1. Type of experiment: cell-based. As to the method:
DMEM complete medium: Nutrient mixture F-12 (Gibco Life-technologies), fetal bovine serum (FBS) 5%, (Gibco life technologies), Penicillin/Streptomycin 1% (Gibco life technologies), Hygromycin 0.6 mg/ml (Gibco life technologies), Glutamine 1 mM Gibco life technologies)
Uptake buffer (UB): 150 mM NaCl, 10 mM Hepes-Tris, pH 7.4, 1 mM CaCl2, 2.5 mM KCl, 2.5 mM MgSO4, 10 mM (+) D-glucose.
Flp-in™-CHO (Invitrogen Cat n° R758-07) cells stably transfected with mGlyT1b cDNA.
Glycine Uptake Inhibition Assay (mGlyT-1b)
On day 1 mammalian cells, (Flp-in™-CHO), transfected with mGlyT-1b cDNA, were plated at the density of 40,000 cells/well in complete F-12 medium, without hygromycin in 96-well culture plates. On day 2, the medium was aspirated and the cells were washed twice with uptake buffer (UB). The cells were then incubated for 20 min at 22° C. with either (i) no potential competitor, (ii) 10 mM non-radioactive glycine, (iii) a concentration of a potential inhibitor. A range of concentrations of the potential inhibitor was used to generate data for calculating the concentration of inhibitor resulting in 50% of the effect (e.g. IC50, the concentration of the competitor inhibiting glycine uptake of 50%). A solution was then immediately added containing [^3H]-glycine 60 nM (11–16 Ci/mmol) and 25 μM non-radioactive glycine. The plates were incubated with gentle shaking and the reaction was stopped by aspiration of the mixture and washing (three times) with ice-cold UB. The cells were lysed with scintillation liquid, shaken 3 hours and the radioactivity in the cells was counted using a scintillation counter.

Molecules are shown by their SMILES.

Usually IC50 stands for the point on the concentration scale where inhibition reaches its midpoint. `CC(C)Oc1ccc(S(C)(=O)=O)cc1C(=O)N1CCN(c2ncc(S(=O)(=O)c3ccccc3)s2)CC1` [Example 4, [4-(5-Benzenesulfonyl-thiazol-2-yl)-piperazin-1-yl]-(2-isopropoxy-5-methanesulfonyl-phenyl)-methanone]: the half-inhibitory concentration (IC50) is 0.061 µM.
Take `CC(Oc1ccc(S(C)(=O)=O)cc1C(=O)N1CCN(c2ncc(C#N)s2)CC1)C(F)(F)F` (stereo not drawn) [Example 10, 2-{4-[5-Methanesulfonyl-2-(2,2,2-trifluoro-1-methyl-ethoxy)-benzoyl]-piperazin-1-yl}-thiazole-5-carbonitrile]: the IC50 turned out to be 0.082 µM.
On to `CS(=O)(=O)c1ccc(OCC2CCC2)c(C(=O)N2CCN(c3ncc(C#N)s3)CC2)c1` [Example 14, 2-[4-(2-Cyclobutylmethoxy-5-methanesulfonyl-benzoyl)-piperazin-1-yl]-thiazole-5-carbonitrile], for which the IC50 stood at 0.083 µM.
`CC(C)COc1ccc(S(C)(=O)=O)cc1C(=O)N1CCN(c2ncc(C#N)s2)CC1` [Example 16, 2-[4-(2-Isobutoxy-5-methanesulfonyl-benzoyl)-piperazin-1-yl]-thiazole-5-carbonitrile]: the IC50 came to 0.065 µM.
On to `CC(C)(C)COc1ccc(S(C)(=O)=O)cc1C(=O)N1CCN(c2ncc(C#N)s2)CC1` [Example 19, 2-{4-[2-(2,2-Dimethyl-propoxy)-5-methanesulfonyl-benzoyl]-piperazin-1-yl}-thiazole-5-carbonitrile], for which the IC50 is 0.043 µM.
Take `CC(C)(C)COc1ccc(S(C)(=O)=O)cc1C(=O)N1CCN(c2ncc(S(=O)(=O)c3ccccc3)s2)CC1` [Example 29, [4-(5-Benzenesulfonyl-thiazol-2-yl)-piperazin-1-yl]-[2-(2,2-dimethyl-propoxy)-5-methanesulfonyl-phenyl]-methanone]: the IC50 was 0.017 µM.
As for `CS(=O)(=O)c1ccc(OC2CCCC2)c(C(=O)N2CCN(c3ncc(S(=O)(=O)c4ccccc4)s3)CC2)c1` [Example 30, [4-(5-Benzenesulfonyl-thiazol-2-yl)-piperazin-1-yl]-(2-cyclopentyloxy-5-methanesulfonyl-phenyl)-methanone], the IC50 was 0.023 µM.
`CC(C)COc1ccc(S(C)(=O)=O)cc1C(=O)N1CCN(c2ncc(S(=O)(=O)c3ccccc3)s2)CC1` [Example 31, [4-(5-Benzenesulfonyl-thiazol-2-yl)-piperazin-1-yl]-(2-isobutoxy-5-methanesulfonyl-phenyl)-methanone]: the IC50 is 0.024 µM.
The figure for `CCCCS(=O)(=O)c1cnc(N2CCN(C(=O)c3cc(S(C)(=O)=O)ccc3OC(C)C(F)(F)F)CC2)s1` (stereo not drawn) [Example 39, {4-[5-(Butane-1-sulfonyl)-thiazol-2-yl]-piperazin-1-yl}-[5-methanesulfonyl-2-(2,2,2-trifluoro-1-methyl-ethoxy)-phenyl]-methanone] is 0.07 µM.
`CCCCS(=O)(=O)c1cnc(N2CCN(C(=O)c3cc(S(C)(=O)=O)ccc3OC3CCCC3)CC2)s1` [Example 41, {4-[5-(Butane-1-sulfonyl)-thiazol-2-yl]-piperazin-1-yl}-(2-cyclopentyloxy-5-methanesulfonyl-phenyl)-methanone]: the IC50 was 0.018 µM.
In the case of `CCCCS(=O)(=O)c1cnc(N2CCN(C(=O)c3cc(S(C)(=O)=O)ccc3OCC(C)(C)C)CC2)s1` [Example 42, {4-[5-(Butane-1-sulfonyl)-thiazol-2-yl]-piperazin-1-yl}-[2-(2,2-dimethyl-propoxy)-5-methanesulfonyl-phenyl]-methanone], the IC50 came out at 0.046 µM.
With `Cc1sc(N2CCN(C(=O)c3cc(S(C)(=O)=O)ccc3OC(C)C(F)(F)F)CC2)nc1C(F)(F)F` (stereo not drawn) [Example 55, [5-Methanesulfonyl-2-(2,2,2-trifluoro-1-methyl-ethoxy)-phenyl]-[4-(5-methyl-4-trifluoromethyl-thiazol-2-yl)-piperazin-1-yl]-methanone], the half-inhibitory concentration (IC50) stood at 0.073 µM.
`CC(Oc1ccc(S(C)(=O)=O)cc1C(=O)N1CCN(c2ncc(C(F)(F)F)s2)CC1)C(F)(F)F` (stereo not drawn) [Example 59, [5-Methanesulfonyl-2-(2,2,2-trifluoro-1-methyl-ethoxy)-phenyl]-[4-(5-trifluoromethyl-thiazol-2-yl)-piperazin-1-yl]-methanone]: the IC50 came out at 0.098 µM.
In the case of `CC(C)(Oc1ccc(S(C)(=O)=O)cc1C(=O)N1CCN(c2ncc(C(F)(F)F)s2)CC1)C(F)(F)F` [Example 66, [5-Methanesulfonyl-2-(2,2,2-trifluoro-1,1-dimethyl-ethoxy)-phenyl]-[4-(5-trifluoromethyl-thiazol-2-yl)-piperazin-1-yl]-methanone], the concentration for half-maximal inhibition (IC50) came out at 0.061 µM.
As for `C[C@H](Oc1ccc(S(C)(=O)=O)cc1C(=O)N1CCN(c2ncc(C(F)(F)F)s2)CC1)C(F)(F)F` [Example 67, [5-Methanesulfonyl-2-((S)-2,2,2-trifluoro-1-methyl-ethoxy)-phenyl]-[4-(5-trifluoromethyl-thiazol-2-yl)-piperazin-1-yl]-methanone], the figure is 0.046 µM; as for `C[C@@H](Oc1ccc(S(C)(=O)=O)cc1C(=O)N1CCN(c2ncc(C(F)(F)F)s2)CC1)C(F)(F)F` [Example 68, [5-Methanesulfonyl-2-((R)-2,2,2-trifluoro-1-methyl-ethoxy)-phenyl]-[4-(5-trifluoromethyl-thiazol-2-yl)-piperazin-1-yl]-methanone], 0.082 µM; as for `CC(Oc1ccc(S(C)(=O)=O)cc1C(=O)N1CCN(c2ncc(CC(F)(F)F)s2)CC1)C(F)(F)F` (stereo not drawn) [Example 69, [5-Methanesulfonyl-2-(2,2,2-trifluoro-1-methyl-ethoxy)-phenyl]-{4-[5-(2,2,2-trifluoro-ethyl)-thiazol-2-yl]-piperazin-1-yl}-methanone], 0.056 µM.
Regarding `C[C@H](Oc1ccc(S(C)(=O)=O)cc1C(=O)N1CCN(c2ncc(CC(F)(F)F)s2)CC1)C(F)(F)F` [Example 70, [5-Methanesulfonyl-2-((S)-2,2,2-trifluoro-1-methyl-ethoxy)-phenyl]-{4-[5-(2,2,2-trifluoro-ethyl)-thiazol-2-yl]-piperazin-1-yl}-methanone], the IC50 was found to be 0.057 µM.
As for `C[C@@H](Oc1ccc(S(C)(=O)=O)cc1C(=O)N1CCN(c2ncc(CC(F)(F)F)s2)CC1)C(F)(F)F` [Example 71, [5-Methanesulfonyl-2-((R)-2,2,2-trifluoro-1-methyl-ethoxy)-phenyl]-{4-[5-(2,2,2-trifluoro-ethyl)-thiazol-2-yl]-piperazin-1-yl}-methanone], the concentration for half-maximal inhibition (IC50) was 0.069 µM.
Turning to `CCS(=O)(=O)c1ccc(OC(C)C(F)(F)F)c(C(=O)N2CCN(c3ncc(C(F)(F)F)s3)CC2)c1` (stereo not drawn) [Example 74, [5-Ethanesulfonyl-2-(2,2,2-trifluoro-1-methyl-ethoxy)-phenyl]-[4-(5-trifluoromethyl-thiazol-2-yl)-piperazin-1-yl]-methanone], the IC50 was 0.031 µM.
As for `CC[C@@H](C)Oc1ccc(S(C)(=O)=O)cc1C(=O)N1CCN(c2ncc(C(F)(F)F)s2)CC1` [Example 77, (2-((R)-sec-Butoxy)-5-methanesulfonyl-phenyl)-[4-(5-trifluoromethyl-thiazol-2-yl)-piperazin-1-yl]-methanone], the IC50 is 0.1 µM.
As to `CC[C@H](C)Oc1ccc(S(C)(=O)=O)cc1C(=O)N1CCN(c2ncc(C(F)(F)F)s2)CC1` [Example 78, (2-((S)-sec-Butoxy)-5-methanesulfonyl-phenyl)-[4-(5-trifluoromethyl-thiazol-2-yl)-piperazin-1-yl]-methanone], the IC50 came out at 0.089 µM.
As for `Cc1nc(N2CCN(C(=O)c3cc(S(C)(=O)=O)ccc3OC(C)C)CC2)sc1C(F)(F)F` [Example 79, (2-Isopropoxy-5-methanesulfonyl-phenyl)-[4-(4-methyl-5-trifluoromethyl-thiazol-2-yl)-piperazin-1-yl]-methanone], the figure is 0.067 µM; as for `Cc1nc(N2CCN(C(=O)c3cc(S(C)(=O)=O)ccc3O[C@@H](C)C(F)(F)F)CC2)sc1C(F)(F)F` [Example 80, [5-Methanesulfonyl-2-((S)-2,2,2-trifluoro-1-methyl-ethoxy)-phenyl]-[4-(4-methyl-5-trifluoromethyl-thiazol-2-yl)-piperazin-1-yl]-methanone], 0.046 µM.

For the origin of these results see US7220744B2, “Monocyclic substituted phenyl methanones” (Hoffman-La Roche Inc., priority 2005, dated 2007).
